Test results: PubChem BioAssay (NCI)
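Cells were grown in 96-well plates and exposed to each compound for 48 hours at five concentrations; endpoints were interpolated linearly between bracketing concentrations, or set to the highest concentration if not reached. Definition used: TGI = concentration required for complete inhibition of growth.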

What was measured:
Assay in all cases: growth of human tumour cells (NCI), 48 h
NCI-H226 lung = tested on: NCI-H226 lung
IGROV1 ovarian = tested on: IGROV1 ovarian
HT29 colon = tested on: HT29 colon
HCT-116 colon = tested on: HCT-116 colon
SNB-19 CNS = tested on: SNB-19 CNS
SK-OV-3 ovarian = tested on: SK-OV-3 ovarian
RPMI-8226 leukemia = tested on: RPMI-8226 leukemia
SK-MEL-5 melanoma = tested on: SK-MEL-5 melanoma
HOP-62 NSCLC = tested on: HOP-62 NSCLC
SN12C renal = tested on: SN12C renal
NCI-H23 lung = tested on: NCI-H23 lung
DU-145 prostate = tested on: DU-145 prostate
SNB-75 CNS = tested on: SNB-75 CNS
MDA-MB-435 = tested on: MDA-MB-435
A549 NSCLC = tested on: A549 NSCLC
RXF 393 renal = tested on: RXF 393 renal
LOX IMVI melanoma = tested on: LOX IMVI melanoma
SR leukemia = tested on: SR leukemia
SF-295 CNS = tested on: SF-295 CNS
TK-10 renal = tested on: TK-10 renal
ACHN renal = tested on: ACHN renal
OVCAR-8 ovarian = tested on: OVCAR-8 ovarian
T-47D breast = tested on: T-47D breast
MDA-N = tested on: MDA-N
EKVX NSCLC = tested on: EKVX NSCLC
CCRF-CEM leukemia = tested on: CCRF-CEM leukemia
HL-60(TB) leukemia = tested on: HL-60(TB) leukemia
BT-549 breast = tested on: BT-549 breast
SF-539 CNS = tested on: SF-539 CNS
KM12 colon = tested on: KM12 colon
PC-3 prostate = tested on: PC-3 prostate
U251 CNS = tested on: U251 CNS
SK-MEL-28 melanoma = tested on: SK-MEL-28 melanoma
OVCAR-5 ovarian = tested on: OVCAR-5 ovarian
HCT-15 colon = tested on: HCT-15 colon
MDA-MB-231 breast = tested on: MDA-MB-231 breast
MOLT-4 leukemia = tested on: MOLT-4 leukemia
OVCAR-3 ovarian = tested on: OVCAR-3 ovarian
SF-268 CNS = tested on: SF-268 CNS
UO-31 renal = tested on: UO-31 renal
COLO 205 colon = tested on: COLO 205 colon
MALME-3M melanoma = tested on: MALME-3M melanoma
MCF7 breast = tested on: MCF7 breast
UACC-257 melanoma = tested on: UACC-257 melanoma
CAKI-1 renal = tested on: CAKI-1 renal
UACC-62 melanoma = tested on: UACC-62 melanoma
NCI/ADR-RES ovarian = tested on: NCI/ADR-RES ovarian
M14 melanoma = tested on: M14 melanoma
786-0 renal = tested on: 786-0 renal
K-562 leukemia = tested on: K-562 leukemia
NCI-H522 lung = tested on: NCI-H522 lung
SW-620 colon = tested on: SW-620 colon
OVCAR-4 ovarian = tested on: OVCAR-4 ovarian
SK-MEL-2 melanoma = tested on: SK-MEL-2 melanoma
NCI-H460 lung = tested on: NCI-H460 lung
HCC-2998 colon = tested on: HCC-2998 colon
A498 renal = tested on: A498 renal
HS 578T breast = tested on: HS 578T breast

SMILES: CN1CN(c2ccccc2)C2(CCN(CC(C)(c3ccc(F)cc3)C3OCCCO3)CC2)C1=O (stereo not given)
- TGI (NCI-H226 lung): 42.7 µM
- TGI (IGROV1 ovarian): 38.9 µM
- TGI (HT29 colon): 27.3 µM
- TGI (HCT-116 colon): 28.7 µM
- TGI (SNB-19 CNS): 42 µM
- TGI (SK-OV-3 ovarian): 67.1 µM
- TGI (RPMI-8226 leukemia): 27.3 µM
- TGI (SK-MEL-5 melanoma): 30.1 µM
- TGI (HOP-62 NSCLC): 30.7 µM
- TGI (SN12C renal): 34.6 µM
- TGI (NCI-H23 lung): 32.9 µM
- TGI (DU-145 prostate): > 100 µM
- TGI (SNB-75 CNS): 46.6 µM
- TGI (MDA-MB-435): 24.5 µM
- TGI (A549 NSCLC): 61.9 µM
- TGI (RXF 393 renal): 39.5 µM
- TGI (LOX IMVI melanoma): 31.8 µM
- TGI (SR leukemia): 30.4 µM
- TGI (SF-295 CNS): 33.4 µM
- TGI (TK-10 renal): 31.9 µM
- TGI (ACHN renal): 49.2 µM
- TGI (OVCAR-8 ovarian): 38.5 µM
- TGI (T-47D breast): 56.2 µM
- TGI (MDA-N): 31.6 µM
- TGI (EKVX NSCLC): 54.8 µM
- TGI (CCRF-CEM leukemia): 45.9 µM
- TGI (HL-60(TB) leukemia): 33.7 µM
- TGI (BT-549 breast): 19.2 µM
- TGI (SF-539 CNS): 26.5 µM
- TGI (KM12 colon): 31.1 µM
- TGI (PC-3 prostate): 34.7 µM
- TGI (U251 CNS): 26.6 µM
- TGI (SK-MEL-28 melanoma): 34.6 µM
- TGI (OVCAR-5 ovarian): 25.7 µM
- TGI (HCT-15 colon): 33.9 µM
- TGI (MDA-MB-231 breast): 60.8 µM
- TGI (MOLT-4 leukemia): 33.2 µM
- TGI (OVCAR-3 ovarian): 24.5 µM
- TGI (SF-268 CNS): 44.9 µM
- TGI (UO-31 renal): 11 µM
- TGI (COLO 205 colon): 44.3 µM
- TGI (MALME-3M melanoma): 30 µM
- TGI (MCF7 breast): 30.2 µM
- TGI (UACC-257 melanoma): 31.5 µM
- TGI (CAKI-1 renal): 65.3 µM
- TGI (UACC-62 melanoma): 34.6 µM
- TGI (NCI/ADR-RES ovarian): 26.9 µM
- TGI (M14 melanoma): 34.5 µM
- TGI (786-0 renal): 43.1 µM
- TGI (K-562 leukemia): 38.6 µM
- TGI (NCI-H522 lung): 33.6 µM
- TGI (SW-620 colon): 43.7 µM

SMILES: CCCCCCCCCCCCCCCCNC(=O)C(=O)/C=C(\O)c1ccc(C)cc1
- TGI (NCI-H226 lung): > 10 µM
- TGI (IGROV1 ovarian): > 10 µM
- TGI (HT29 colon): > 10 µM
- TGI (OVCAR-4 ovarian): > 10 µM
- TGI (SK-OV-3 ovarian): > 10 µM
- TGI (RPMI-8226 leukemia): > 10 µM
- TGI (SK-MEL-5 melanoma): > 10 µM
- TGI (HOP-62 NSCLC): > 10 µM
- TGI (SN12C renal): > 10 µM
- TGI (NCI-H23 lung): > 10 µM
- TGI (DU-145 prostate): > 10 µM
- TGI (SNB-75 CNS): > 10 µM
- TGI (MDA-MB-435): > 10 µM
- TGI (RXF 393 renal): > 10 µM
- TGI (SK-MEL-2 melanoma): > 10 µM
- TGI (LOX IMVI melanoma): > 10 µM
- TGI (SR leukemia): > 10 µM
- TGI (SF-295 CNS): > 10 µM
- TGI (TK-10 renal): > 10 µM
- TGI (ACHN renal): > 10 µM
- TGI (OVCAR-8 ovarian): > 10 µM
- TGI (T-47D breast): > 10 µM
- TGI (MDA-N): > 10 µM
- TGI (EKVX NSCLC): > 10 µM
- TGI (CCRF-CEM leukemia): > 10 µM
- TGI (HL-60(TB) leukemia): > 10 µM
- TGI (SF-539 CNS): > 10 µM
- TGI (KM12 colon): > 10 µM
- TGI (PC-3 prostate): > 10 µM
- TGI (U251 CNS): > 10 µM
- TGI (SK-MEL-28 melanoma): > 10 µM
- TGI (OVCAR-5 ovarian): > 10 µM
- TGI (HCT-15 colon): > 10 µM
- TGI (MDA-MB-231 breast): > 10 µM
- TGI (MOLT-4 leukemia): > 10 µM
- TGI (OVCAR-3 ovarian): > 10 µM
- TGI (SF-268 CNS): > 10 µM
- TGI (UO-31 renal): > 10 µM
- TGI (COLO 205 colon): > 10 µM
- TGI (NCI-H460 lung): > 10 µM
- TGI (MALME-3M melanoma): > 10 µM
- TGI (MCF7 breast): > 10 µM
- TGI (UACC-257 melanoma): > 10 µM
- TGI (CAKI-1 renal): > 10 µM
- TGI (NCI/ADR-RES ovarian): > 10 µM
- TGI (M14 melanoma): > 10 µM
- TGI (786-0 renal): > 10 µM
- TGI (HCC-2998 colon): > 10 µM
- TGI (K-562 leukemia): > 10 µM
- TGI (A498 renal): > 10 µM
- TGI (NCI-H522 lung): > 10 µM
- TGI (SW-620 colon): > 10 µM
- TGI (HS 578T breast): > 10 µM
